Measured values: patent US9150575B2, “Piperidinylpyrazolopyridine derivative” (Daiichi Sankyo Company, Limited, priority 2012, dated 2015)

Biological target: T1, LCAT (Homo sapiens, UniProt P04180)
T1 construct: The obtained fraction was dialyzed against phosphate-buffered saline (pH 7.4) and used as an enzyme source and an acceptor for LCAT; from tissue; host or cells: HDL3 fraction (1.125<specific gravity<1.210 g/mL) of plasma from a healthy person
T1 sequence (P04180 25-440): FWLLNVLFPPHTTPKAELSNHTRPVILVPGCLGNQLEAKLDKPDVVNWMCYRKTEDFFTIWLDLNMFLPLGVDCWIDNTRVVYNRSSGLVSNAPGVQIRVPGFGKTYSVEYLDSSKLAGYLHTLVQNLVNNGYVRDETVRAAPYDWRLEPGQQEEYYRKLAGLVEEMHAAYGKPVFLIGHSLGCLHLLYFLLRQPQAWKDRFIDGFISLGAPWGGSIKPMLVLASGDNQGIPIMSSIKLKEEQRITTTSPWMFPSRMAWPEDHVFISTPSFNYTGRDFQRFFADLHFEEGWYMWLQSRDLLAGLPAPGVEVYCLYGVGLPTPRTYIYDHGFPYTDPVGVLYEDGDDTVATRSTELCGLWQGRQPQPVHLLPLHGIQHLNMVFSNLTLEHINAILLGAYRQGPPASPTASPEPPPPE
Test: LCAT Activity Measurement (In Vitro)
Type: biochemical
Conditions: EC50 of LCAT activation; HDL3 fraction from plasma of a healthy person as enzyme source and acceptor; [14C]cholesterol; 37° C., approximately 16 hours
Procedure, shortened: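 Human plasma HDL3 (1 mg/mL, PBS pH 7.4) served as enzyme and acceptor with [14C]cholesterol, 0.5 mM DTNB, 12.5 mM mercaptoethanol and 0.6% BSA; compounds in DMSO, incubated ~16 h at 37 °C. Cholesterol oleate radioactivity quantified after extraction and TLC; EC50 of activation fitted relative to no-drug control.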

EC50	SMILES
470 nM	N#Cc1cnc(N2CCC(c3n[nH]c4c3C(O)(C(F)(F)F)CC(=O)N4)CC2)s1 (centres unmarked) [Example 81, 2-{4-[4-Hydroxy-6-oxo-4-(trifluoromethyl)-4,5,6,7-tetrahydro-1H-pyrazolo[3,4-b]pyridin-3-yl]piperidin-1-yl}-1,3-thiazole-5-carbonitrile]
420 nM	CN(C)C(=O)c1nc(N2CCC(c3n[nH]c4c3C(O)(C(F)(F)F)CC(=O)N4)CC2)ccc1C(F)(F)F (centres unmarked) [Example 83, 6-{4-[4-Hydroxy-6-oxo-4-(trifluoromethyl)-4,5,6,7-tetrahydro-1H-pyrazolo[3,4-b]pyridin-3-yl]piperidin-1-yl}-N,N-dimethyl-3-(trifluoromethyl)pyridine-2-carboxamide]
270 nM	CN(C)C(=O)c1cc(N2CCC(c3n[nH]c4c3C(O)(C(F)(F)F)CC(=O)N4)CC2)ncc1C(F)(F)F (centres unmarked) [Example 84, 2-{4-[4-Hydroxy-6-oxo-4-(trifluoromethyl)-4,5,6,7-tetrahydro-1H-pyrazolo[3,4-b]pyridin-3-yl]piperidin-1-yl}-N,N-dimethyl-5-(trifluoromethyl)pyridine-4-carboxamide]
140 nM	CN(C)c1cc(N2CCC(c3n[nH]c4c3C(O)(C(F)(F)F)CC(=O)N4)CC2)nc(C(F)(F)F)n1 (centres unmarked) [Example 86, 3-{1-[6-(Dimethylamino)-2-(trifluoromethyl)pyrimidin-4-yl]piperidin-4-yl}-4-hydroxy-4-(trifluoromethyl)-1,4,5,7-tetrahydro-6H-pyrazolo[3,4-b]pyridin-6-one]
310 nM	O=C1CC(O)(C(F)(F)F)c2c(C3CCN(c4nc(-c5ccccc5)cs4)CC3)n[nH]c2N1 (centres unmarked) [Example 90, 4-Hydroxy-3-[1-(4-phenyl-1,3-thiazol-2-yl)piperidin-4-yl]-4-(trifluoromethyl)-1,4,5,7-tetrahydro-6H-pyrazolo[3,4-b]pyridin-6-one]
220 nM	O=C1CC(O)(C(F)(F)F)c2c(C3CCN(c4ncc(C(F)(F)F)cc4F)CC3)n[nH]c2N1 (centres unmarked) [Example 96, 3-{1-[3-Fluoro-5-(trifluoromethyl)pyridin-2-yl]piperidin-4-yl}-4-hydroxy-4-(trifluoromethyl)-1,4,5,7-tetrahydro-6H-pyrazolo[3,4-b]pyridin-6-one]
35 nM	O=C1CC(O)(C(F)(F)F)c2c(C3CCN(c4ccc(C(F)(F)F)c(F)n4)CC3)n[nH]c2N1 (centres unmarked) [Example 97, 3-{1-[6-Fluoro-5-(trifluoromethyl)pyridin-2-yl]piperidin-4-yl}-4-hydroxy-4-(trifluoromethyl)-1,4,5,7-tetrahydro-6H-pyrazolo[3,4-b]pyridin-6-one]
75 nM	O=C1CC(O)(C(F)(F)F)c2c(C3CCN(c4ccc(C5CC5)cn4)CC3)n[nH]c2N1 (centres unmarked) [Example 99, 3-[1-(5-Cyclopropylpyridin-2-yl)piperidin-4-yl]-4-hydroxy-4-(trifluoromethyl)-1,4,5,7-tetrahydro-6H-pyrazolo[3,4-b]pyridin-6-one]
27 nM	O=C1CC(O)(C(F)(F)F)c2c(C3CCN(c4ccc(-c5ccccc5)nn4)CC3)n[nH]c2N1 (centres unmarked) [Example 105, 4-Hydroxy-3-[1-(6-phenylpyridazin-3-yl)piperidin-4-yl]-4-(trifluoromethyl)-1,4,5,7-tetrahydro-6H-pyrazolo[3,4-b]pyridin-6-one]

Continued, molecule first:

SMILES	EC50
COC(=O)c1cc(N2CCC(c3n[nH]c4c3C(O)(C(F)(F)F)CC(=O)N4)CC2)ncc1C(F)(F)F (centres unmarked) [Example 82, Methyl 2-{4-[4-hydroxy-6-oxo-4-(trifluoromethyl)-4,5,6,7-tetrahydro-1H-pyrazolo[3,4-b]pyridin-3-yl]piperidin-1-yl}-5-(trifluoromethyl)pyridine-4-carboxylate]	32 nM
O=C1CC(O)(C(F)(F)F)c2c(C3CCN(c4cc(C(=O)OCc5ccccc5)c(C(F)(F)F)cn4)CC3)n[nH]c2N1 (centres unmarked) [Example 85, Benzyl 2-[4-(4-hydroxy-6-oxo-4-(trifluoromethyl)-4,5,6,7-tetrahydro-1H-pyrazolo[3,4-b]pyridin-3-yl)piperidin-1-yl]-5-(trifluoromethyl)pyridine-4-carboxylate]	13 nM
Cc1nc(N2CCC(c3n[nH]c4c3C(O)(C(F)(F)F)CC(=O)N4)CC2)cc(C(F)(F)F)n1 (centres unmarked) [Example 87, 4-Hydroxy-3-{1-[2-methyl-6-(trifluoromethyl)pyrimidin-4-yl]piperidin-4-yl}-4-(trifluoromethyl)-1,4,5,7-tetrahydro-6H-pyrazolo[3,4-b]pyridin-6-one]	300 nM
CC(C)c1nc(N2CCC(c3n[nH]c4c3C(O)(C(F)(F)F)CC(=O)N4)CC2)cc(C(F)(F)F)n1 (centres unmarked) [Example 88, 4-Hydroxy-3-{1-[2-(propan-2-yl)-6-(trifluoromethyl)pyrimidin-4-yl]piperidin-4-yl}-4-(trifluoromethyl)-1,4,5,7-tetrahydro-6H-pyrazolo[3,4-b]pyridin-6-one]	88 nM
O=C1CC(O)(C(F)(F)F)c2c(C3CCN(c4ncc(-c5ccccc5)s4)CC3)n[nH]c2N1 (centres unmarked) [Example 89, 4-Hydroxy-3-[1-(5-phenyl-1,3-thiazol-2-yl)piperidin-4-yl]-4-(trifluoromethyl)-1,4,5,7-tetrahydro-6H-pyrazolo[3,4-b]pyridin-6-one]	110 nM
CCOC(=O)c1oc(N2CCC(c3n[nH]c4c3C(O)(C(F)(F)F)CC(=O)N4)CC2)nc1C(F)(F)F (centres unmarked) [Example 91, Ethyl 2-{4-[4-hydroxy-6-oxo-4-(trifluoromethyl)-4,5,6,7-tetrahydro-1H-pyrazolo[3,4-b]pyridin-3-yl]piperidin-1-yl}-4-(trifluoromethyl)-1,3-oxazole-5-carboxylate]	77 nM
O=C1CC(O)(C(F)(F)F)c2c(C3CCN(c4cc(C(F)(F)F)nc(C5CC5)n4)CC3)n[nH]c2N1 (centres unmarked) [Example 92, 3-{1-[2-Cyclopropyl-6-(trifluoromethyl)pyrimidin-4-yl]piperidin-4-yl}-4-hydroxy-4-(trifluoromethyl)-1,4,5,7-tetrahydro-6H-pyrazolo[3,4-b]pyridin-6-one]	210 nM
CN(C)c1nc(N2CCC(c3n[nH]c4c3C(O)(C(F)(F)F)CC(=O)N4)CC2)cc(C(F)(F)F)n1 (centres unmarked) [Example 93, 3-{1-[2-(Dimethylamino)-6-(trifluoromethyl)pyrimidin-4-yl]piperidin-4-yl}-4-hydroxy-4-(trifluoromethyl)-1,4,5,7-tetrahydro-6H-pyrazolo[3,4-b]pyridin-6-one]	84 nM
N#Cc1nc(N2CCC(c3n[nH]c4c3C(O)(C(F)(F)F)CC(=O)N4)CC2)ccc1C(F)(F)F (centres unmarked) [Example 94, 6-{4-[4-Hydroxy-6-oxo-4-(trifluoromethyl)-4,5,6,7-tetrahydro-1H-pyrazolo[3,4-b]pyridin-3-yl]piperidin-1-yl}-3-(trifluoro)pyridine-2-carbonitrile]	15 nM
N#Cc1cnc(N2CCC(c3n[nH]c4c3C(O)(C(F)(F)F)CC(=O)N4)CC2)cc1C(F)(F)F (centres unmarked) [Example 95, 6-{4-[4-Hydroxy-6-oxo-4-(trifluoromethyl)-4,5,6,7-tetrahydro-1H-pyrazolo[3,4-b]pyridin-3-yl]piperidin-1-yl}-4-(trifluoromethyl)pyridine-3-carbonitrile]	37 nM
N#Cc1cccnc1N1CCC(c2n[nH]c3c2C(O)(C(F)(F)F)CC(=O)N3)CC1 (centres unmarked) [Example 100, 2-{4-[4-Hydroxy-6-oxo-4-(trifluoromethyl)-4,5,6,7-tetrahydro-1H-pyrazolo[3,4-b]pyridin-3-yl]piperidin-1-yl}pyridine-3-carbonitrile]	1550 nM
N#Cc1cc(C(F)(F)F)cnc1N1CCC(c2n[nH]c3c2C(O)(C(F)(F)F)CC(=O)N3)CC1 (centres unmarked) [Example 101, 2-{4-[4-Hydroxy-6-oxo-4-(trifluoromethyl)-4,5,6,7-tetrahydro-1H-pyrazolo[3,4-b]pyridin-3-yl]piperidin-1-yl}-5-(trifluoromethyl)pyridine-3-carbonitrile]	170 nM
O=C1CC(O)(C(F)(F)F)c2c(C3CCN(c4cc(I)c(C(F)(F)F)cn4)CC3)n[nH]c2N1 (centres unmarked) [Example 102, 4-Hydroxy-3-{1-[4-iodo-5-(trifluoromethyl)pyridin-2-yl]piperidin-4-yl}-4-(trifluoromethyl)-1,4,5,7-tetrahydro-6H-pyrazolo[3,4-b]pyridin-6-one]	21 nM
N#Cc1cnc(N2CCC(c3n[nH]c4c3C(O)(C(F)(F)F)CC(=O)N4)CC2)c(C(F)(F)F)c1 (centres unmarked) [Example 104, 6-{4-[4-Hydroxy-6-oxo-4-(trifluoromethyl)-4,5,6,7-tetrahydro-1H-pyrazolo[3,4-b]pyridin-3-yl]piperidin-1-yl}-5-(trifluoromethyl)pyridine-3-carbonitrile]	1100 nM
